Measured values reported in patent US11840551B2, “Compositions and methods of modulating the immune response by activating alpha protein kinase 1” (Shanghai Yao Yuan Biotechnology Co., Ltd., priority 2017, dated 2023).
“Also recorded” adds a separate entry of the source.

Columns and labels:
[1] = target: T1, ALPK1 (Homo sapiens, UniProt Q96QP1); assay: IL8 secretion in HEK293 cells (IL8 ELISA) as indicator of ALPK1 activation; conditions: for IL8 secretion in HEK293 cells: serial dilutions, 4 hours
T1 sequence (Q96QP1 whole entry): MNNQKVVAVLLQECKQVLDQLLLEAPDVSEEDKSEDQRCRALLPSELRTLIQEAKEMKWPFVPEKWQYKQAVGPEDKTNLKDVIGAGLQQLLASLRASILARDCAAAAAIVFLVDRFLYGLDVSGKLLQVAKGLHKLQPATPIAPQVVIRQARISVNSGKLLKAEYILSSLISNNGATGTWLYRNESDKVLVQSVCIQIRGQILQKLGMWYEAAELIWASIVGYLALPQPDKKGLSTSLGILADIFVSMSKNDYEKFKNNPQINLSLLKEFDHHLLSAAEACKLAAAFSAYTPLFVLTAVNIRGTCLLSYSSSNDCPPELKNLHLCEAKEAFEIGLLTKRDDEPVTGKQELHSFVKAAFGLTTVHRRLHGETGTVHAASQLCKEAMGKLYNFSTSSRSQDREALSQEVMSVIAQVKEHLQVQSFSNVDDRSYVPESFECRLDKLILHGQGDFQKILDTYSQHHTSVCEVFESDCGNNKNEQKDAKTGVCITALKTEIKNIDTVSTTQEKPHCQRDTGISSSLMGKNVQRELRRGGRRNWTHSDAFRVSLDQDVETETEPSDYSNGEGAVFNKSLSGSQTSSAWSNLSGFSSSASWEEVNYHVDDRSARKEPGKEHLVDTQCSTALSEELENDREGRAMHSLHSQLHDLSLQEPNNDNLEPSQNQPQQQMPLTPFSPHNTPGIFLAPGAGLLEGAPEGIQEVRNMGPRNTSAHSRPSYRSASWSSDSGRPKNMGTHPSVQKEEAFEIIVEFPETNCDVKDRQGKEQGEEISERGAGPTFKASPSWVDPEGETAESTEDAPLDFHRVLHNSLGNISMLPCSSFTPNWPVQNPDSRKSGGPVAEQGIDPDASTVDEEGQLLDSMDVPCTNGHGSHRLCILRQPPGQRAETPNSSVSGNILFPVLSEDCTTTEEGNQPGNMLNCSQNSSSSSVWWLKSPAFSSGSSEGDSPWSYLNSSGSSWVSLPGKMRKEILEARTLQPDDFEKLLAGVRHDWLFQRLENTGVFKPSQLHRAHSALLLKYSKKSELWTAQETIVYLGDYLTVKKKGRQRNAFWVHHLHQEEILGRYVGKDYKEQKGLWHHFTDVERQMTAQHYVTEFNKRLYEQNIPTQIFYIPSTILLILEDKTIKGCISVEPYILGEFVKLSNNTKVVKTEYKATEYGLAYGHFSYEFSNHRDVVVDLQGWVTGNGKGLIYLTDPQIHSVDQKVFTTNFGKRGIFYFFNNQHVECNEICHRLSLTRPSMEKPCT
Method: Phosphatase such as the alkaline phosphatase may be responsible for H1b-ADP hydrolysis. We pre-mixed H1b-ADP with phosphatase inhibitor sodium orthovanadate (Na3VO4) before incubation with FBS. […] We hypothesized that the accumulation of hydrolysis product AMP can inhibit phosphatase activity.
A number of H1b-ADP derivative compounds were made as described herein and tested for biological activity as agonists of ALPK1 in vitro. In these experiments, serial dilutions of the compounds were added to the tissue culture media of HEK293 cells with (FIG. 27B, FIG. 28B, FIG. 29B) or without (FIG. 26, FIG. 27A, FIG. 28A, FIG. 29A) 10% FBS, as indicated in the figures. After 4 hours, the cell supernatant was collected and analyzed for IL8 concentration using IL8 ELISA (BD) as an indicator of ALPK1 activation.

[2] = target: T1, ALPK1; assay: In vitro kinase assay of ALPK1-dependent TIFA phosphorylation; type: biochemical; conditions: ALPK1 2 nM, TIFA 1.6 uM, 50 uM ATP; compound 2 nM, 0.4 nM, 80 pM, 16 pM, 3 pM
Method: We performed an in vitro kinase assay with H1b-ADP and H1b-ADP-6L along with ALPK1 protein (2 nM), and TIFA protein (1.6 uM) in kinase buffer containing 50 uM ATP. TIFA phosphorylation was analyzed by denaturing gel electrophoresis followed by western blotting using an anti-phosphothreonine antibody. H1b-ADP or H1b-ADP-6L was added at 2 nM, 0.4 nM, 80 pM, 16 pM, and 3 pM.
To test this, we performed an in vitro kinase reaction for ALPK1-dependent TIFA phosphorylation in the presence of either HBP or HIdA purified from E. coli containing inactivated HIdE, or in the presence of HBP and HIdA purified from the same HIdE wild-type E. coli used in the previous experiments. Phosphorylated TIFA (three concentrations, 1%, 0.2% and […]) was detected as described above by denaturing gel electrophoresis followed by Western analysis.

| Compound | IL8 secretion in HEK293 cells ([1]; with 10% FBS) | IL8 secretion in HEK293 cells ([1]; without FBS) | resistance to FBS (serum) degradation ([1]; comparison of IL8 secretion without FBS and with 10% FBS (FIG. 27A, FIG. 27B)) | TIFA phosphorylation [2] |
| --- | --- | --- | --- | --- |
| CC(=O)OC[C@@H](OC(C)=O)C1O[C@@H](OP(=O)(O)OP(=O)(O)OCC2(F)O[C@@H](n3cnc4c(N)ncnc43)C3OC(C)(C)OC32)C(OC(C)=O)C(OC(C)=O)[C@@H]1OC(C)=O (single isomer, unassigned) [Compound 19] | activate IL8 secretion | activate IL8 secretion | – | – |
| COC1C(OC)[C@@H](COP(=O)(O)OP(=O)(O)O[C@@H]2OC([C@H](O)CO)[C@@H](O)C(O)C2O)O[C@H]1n1cnc2c(N)ncnc21 (stereo in doubt) [Compound 14, Adenosine-2′3′-dimethoxy-5′-(D-glycero-B-D-mannoheptopyranosyl) diphosphate] | increased IL8 secretion | increased IL8 secretion | – | – |
| Nc1ncnc2c1ncn2[C@@H]1O[C@H](COP(=O)(O)OP(=O)(O)O[C@@H]2OC([C@@H](O)CO)[C@@H](O)C(O)C2O)C(O)C1O (stereo in doubt) [Compound 22, Adenosine-5′-(L-glycero-β-D-mannoheptopyranosyl) diphosphate] | increased IL8 secretion | increased IL8 secretion | – | – |
| CC(=O)OC[C@H](F)[C@H]1O[C@@H](OP(=O)(O)OP(=O)(O)OC[C@H]2O[C@@H](n3cnc4c(N)ncnc43)[C@H](O)[C@@H]2O)[C@@H](OC(C)=O)[C@@H](OC(C)=O)[C@@H]1OC(C)=O [Compound 3, (2S,3S,4S,5S,6S)-2-((S)-2-acetoxy-1-fluoroethyl)-6-(((((((2R,3S,4R,5R)-5-(6-amino-9H-purin-9-yl)-3,4-dihydroxytetrahydrofuran-2-yl)methoxy)(hydroxy)phosphoryl)oxy)(hydroxy)phosphoryl)oxy)tetrahydro-2H-pyran-3,4,5-triyl triacetate] | activate IL8 secretion | activate IL8 secretion | – | – |
| CC(=O)OC[C@H]1O[C@@H](OP(=O)(O)OP(=O)(O)OC[C@H]2O[C@@H](n3cnc4c(N)ncnc43)[C@H](O)[C@@H]2O)[C@@H](OC(C)=O)[C@@H](OC(C)=O)[C@@H]1OC(C)=O [Compound 5, (2R,3R,4S,5S,6S)-2-(acetoxymethyl)-6-(((((((2R,3S,4R,5R)-5-(6-amino-9H-purin-9-yl)-3,4-dihydroxytetrahydrofuran-2-yl)methoxy)(hydroxy)phosphoryl)oxy)(hydroxy)phosphoryl)oxy)tetrahydro-2H-pyran-3,4,5-triyl triacetate] | increased IL8 secretion | increased IL8 secretion | – | – |
| CO[C@@H]1[C@H](OC)[C@@H](COP(=O)(O)OP(=O)(O)O[C@@H]2O[C@H]([C@@H](COC(C)=O)OC(C)=O)[C@@H](OC(C)=O)[C@H](OC(C)=O)[C@@H]2OC(C)=O)O[C@H]1n1cnc2c(N)ncnc21 [Compound 13, (2S,3S,4S,5R,6R)-2-(((((((2R,3R,4R,5R)-5-(6-amino-9H-purin-9-yl)-3,4-dimethoxytetrahydrofuran-2-yl)methoxy)(hydroxy)phosphoryl)oxy)(hydroxy)phosphoryl)oxy)-6-((R)-1,2-diacetoxyethyl)tetrahydro-2H-pyran-3,4,5-triyl triacetate] | increased IL8 secretion | increased IL8 secretion | – | – |
| CC(=O)OC[C@@H](OC(C)=O)C1O[C@@H](OP(=O)(O)OP(O)(=S)OC[C@H]2O[C@@H](n3cnc4c(N)ncnc43)C(O)C2O)C(OC(C)=O)C(OC(C)=O)[C@@H]1OC(C)=O (stereo partly drawn) [Compound 15, (2S,3S,4S,5R,6R)-2-(((((((2R,3S,4R,5R)-5-(6-amino-9H-purin-9-yl)-3,4-dihydroxytetrahydrofuran-2-yl)methoxy)(hydroxy)phosphorothioyl)oxy)(hydroxy)phosphoryl)oxy)-6-((R)-1,2-diacetoxyethyl)tetrahydro-2H-pyran-3,4,5-triyl triacetate] | activate IL8 secretion | activate IL8 secretion | unexpected resistance to serum degradation; also recorded: resistant to FBS degradation | – |
| Nc1ncnc2c1ncn2[C@@H]1O[C@H](COP(O)(=S)OP(=O)(O)O[C@@H]2OC([C@H](O)CO)[C@@H](O)[C@H](O)C2O)[C@H](O)C1O (stereo partly drawn) [Compound 16] | increased IL8 secretion | increased IL8 secretion | – | – |
| CC(=O)OC[C@@H](OC(C)=O)[C@H]1O[C@@H](OP(=O)(O)OP(=O)(O)OC[C@H]2O[C@@H](n3cnc4c(N)ncnc43)[C@H](O)[C@H]2F)[C@@H](OC(C)=O)[C@@H](OC(C)=O)[C@@H]1OC(C)=O [Compound 17, (2S,3S,4S,5R,6R)-2-(((((((2R,3R,4S,5R)-5-(6-amino-9H-purin-9-yl)-3-fluoro-4-hydroxytetrahydrofuran-2-yl)methoxy)(hydroxy)phosphoryl)oxy)(hydroxy)phosphoryl)oxy)-6-((R)-1,2-diacetoxyethyl)tetrahydro-2H-pyran-3,4,5-triyl triacetate] | increased IL8 secretion | increased IL8 secretion | – | – |
| CC(=O)OC[C@@H](OC(C)=O)[C@H]1O[C@@H](OP(=O)(O)OP(=O)(O)OC[C@@]2(F)O[C@@H](n3cnc4c(N)ncnc43)[C@H](O)[C@@H]2O)[C@@H](OC(C)=O)[C@@H](OC(C)=O)[C@@H]1OC(C)=O [Compound 20, (2S,3S,4S,5R,6R)-2-(((((((2S,3S,4R,5R)-5-(6-amino-9H-purin-9-yl)-2-fluoro-3,4-dihydroxytetrahydrofuran-2-yl)methoxy)(hydroxy)phosphoryl)oxy)(hydroxy)phosphoryl)oxy)-6-((R)-1,2-diacetoxyethyl)tetrahydro-2H-pyran-3,4,5-triyl triacetate] | activate IL8 secretion | activate IL8 secretion | – | – |
| CC(=O)OC[C@H](OC(C)=O)[C@H]1O[C@@H](OP(=O)(O)OP(=O)(O)OC[C@H]2O[C@@H](n3cnc4c(N)ncnc43)[C@H](O)[C@@H]2O)[C@@H](OC(C)=O)[C@@H](OC(C)=O)[C@@H]1OC(C)=O [Compound 21, (2S,3S,4S,5R,6R)-2-(((((((2R,3S,4R,5R)-5-(6-amino-9H-purin-9-yl)-3,4-dihydroxytetrahydrofuran-2-yl)methoxy)(hydroxy)phosphoryl)oxy)(hydroxy)phosphoryl)oxy)-6-((S)-1,2-diacetoxyethyl)tetrahydro-2H-pyran-3,4,5-triyl triacetate] | increased IL8 secretion | increased IL8 secretion | – | – |
| Nc1ncnc2c1ncn2[C@@H]1O[C@H](COP(=O)(O)OP(=O)(O)O[C@@H]2O[C@H]([C@@H](O)CO)[C@@H](O)[C@H](O)[C@@H]2O)[C@@H](O)[C@H]1O [Compound H1b-ADP-6L, L-glycero-D-manno-heptose-1β-ADP] | – | – | – | activated ALPK1-dependent signaling in a manner similar to H1b-ADP |
